Measurements as given in PubChem BioAssay (NCI).
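Each compound was tested at five concentrations against cells in 96-well plates for 48 hours. TGI: concentration producing complete growth inhibition.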

Assays:
Experiment in all cases: NCI anticancer screen, dose series, 48 h
[1] = system: 786-0 renal
[2] = system: A498 renal
[3] = system: A549 NSCLC
[4] = system: ACHN renal
[5] = system: CAKI-1 renal
[6] = system: CCRF-CEM leukemia
[7] = system: COLO 205 colon
[8] = system: DU-145 prostate
[9] = system: HCC-2998 colon
[10] = system: HCT-116 colon
[11] = system: HCT-15 colon
[12] = system: HOP-62 NSCLC
[13] = system: HOP-92 NSCLC
[14] = system: HT29 colon
[15] = system: K-562 leukemia
[16] = system: KM12 colon
[17] = system: LOX IMVI melanoma
[18] = system: M14 melanoma
[19] = system: MCF7 breast
[20] = system: MDA-MB-231 breast
[21] = system: MDA-MB-435
[22] = system: MDA-N
[23] = system: MOLT-4 leukemia
[24] = system: NCI-H226 lung
[25] = system: NCI-H23 lung
[26] = system: NCI-H460 lung
[27] = system: NCI/ADR-RES ovarian
[28] = system: OVCAR-3 ovarian
[29] = system: OVCAR-4 ovarian
[30] = system: OVCAR-5 ovarian
[31] = system: OVCAR-8 ovarian
[32] = system: PC-3 prostate
[33] = system: RPMI-8226 leukemia
[34] = system: RXF 393 renal
[35] = system: SF-268 CNS
[36] = system: SF-295 CNS
[37] = system: SK-MEL-2 melanoma
[38] = system: SK-MEL-28 melanoma
[39] = system: SK-MEL-5 melanoma
[40] = system: SK-OV-3 ovarian
[41] = system: SN12C renal
[42] = system: SNB-19 CNS
[43] = system: SNB-75 CNS
[44] = system: SR leukemia
[45] = system: SW-620 colon
[46] = system: T-47D breast
[47] = system: U251 CNS
[48] = system: UACC-257 melanoma
[49] = system: UACC-62 melanoma
[50] = system: UO-31 renal
[51] = system: EKVX NSCLC
[52] = system: HL-60(TB) leukemia
[53] = system: HS 578T breast
[54] = system: IGROV1 ovarian
[55] = system: MALME-3M melanoma
[56] = system: NCI-H522 lung
[57] = system: SF-539 CNS
[58] = system: TK-10 renal

`CC(C)CCNC(=O)c1ccc(CNC(=O)/C=C/c2ccc(OCc3ccccc3)cc2)cc1` showed a TGI [1] greater than 100 µM, a TGI [2] greater than 100 µM and a TGI [3] greater than 100 µM. It also gave a TGI [4] greater than 100 µM, a TGI [5] greater than 100 µM and a TGI [6] greater than 100 µM. The TGI [7] was greater than 100 µM, the TGI [8] was greater than 100 µM and the TGI [9] was greater than 100 µM. For the same compound, the TGI [10] was greater than 100 µM, the TGI [11] was greater than 100 µM and the TGI [12] was greater than 100 µM. The TGI [13] was greater than 100 µM, the TGI [14] was greater than 100 µM and the TGI [15] was greater than 100 µM. For the same compound, the TGI [16] was greater than 100 µM, the TGI [17] was greater than 100 µM and the TGI [18] was greater than 100 µM. It also gave a TGI [19] greater than 100 µM, a TGI [20] greater than 100 µM and a TGI [21] greater than 100 µM. The TGI [22] was greater than 100 µM, the TGI [23] was greater than 100 µM and the TGI [24] was greater than 100 µM. The TGI [25] was greater than 100 µM, the TGI [26] was greater than 100 µM and the TGI [27] was greater than 100 µM. It also gave a TGI [28] greater than 100 µM, a TGI [29] greater than 100 µM and a TGI [30] greater than 100 µM. The TGI [31] was greater than 100 µM, the TGI [32] was greater than 100 µM and the TGI [33] was greater than 100 µM. It also gave a TGI [34] greater than 100 µM, a TGI [35] greater than 100 µM and a TGI [36] greater than 100 µM. It also gave a TGI [37] greater than 100 µM, a TGI [38] greater than 100 µM and a TGI [39] greater than 100 µM. The TGI [40] was greater than 100 µM, the TGI [41] was greater than 100 µM and the TGI [42] was greater than 100 µM. For the same compound, the TGI [43] was greater than 100 µM, the TGI [44] was greater than 100 µM and the TGI [45] was greater than 100 µM. It also gave a TGI [46] greater than 100 µM, a TGI [47] greater than 100 µM and a TGI [48] greater than 100 µM. The TGI [49] was greater than 100 µM and the TGI [50] was greater than 100 µM.
`CC1=C2c3ccccc3N(C(=O)/C=C/C(=O)O)[C@H]2[C@H]2C(=O)OC(=O)[C@H]2C1` gave a TGI [2] greater than 10 µM, a TGI [3] greater than 10 µM and a TGI [4] greater than 10 µM. The TGI [5] was greater than 10 µM, the TGI [6] was greater than 10 µM and the TGI [7] was greater than 10 µM. For the same compound, the TGI [8] was greater than 10 µM, the TGI [51] was greater than 10 µM and the TGI [9] was greater than 10 µM. It also gave a TGI [10] greater than 10 µM, a TGI [11] greater than 10 µM and a TGI [52] greater than 10 µM. The TGI [12] was greater than 10 µM, the TGI [53] was greater than 10 µM and the TGI [14] was greater than 10 µM. It also gave a TGI [54] greater than 10 µM, a TGI [16] greater than 10 µM and a TGI [18] greater than 10 µM. It also gave a TGI [55] greater than 10 µM, a TGI [19] greater than 10 µM and a TGI [20] greater than 10 µM. For the same compound, the TGI [21] was greater than 10 µM, the TGI [22] was greater than 10 µM and the TGI [23] was greater than 10 µM. For the same compound, the TGI [24] was greater than 10 µM, the TGI [25] was greater than 10 µM and the TGI [26] was greater than 10 µM. The TGI [56] was greater than 10 µM, the TGI [27] was greater than 10 µM and the TGI [28] was greater than 10 µM. It also gave a TGI [29] greater than 10 µM, a TGI [30] greater than 10 µM and a TGI [31] greater than 10 µM. For the same compound, the TGI [32] was greater than 10 µM, the TGI [33] was greater than 10 µM and the TGI [34] was greater than 10 µM. The TGI [35] was greater than 10 µM, the TGI [36] was greater than 10 µM and the TGI [57] was greater than 10 µM. The TGI [37] was greater than 10 µM, the TGI [38] was greater than 10 µM and the TGI [39] was greater than 10 µM. It also gave a TGI [40] greater than 10 µM, a TGI [41] greater than 10 µM and a TGI [42] greater than 10 µM. For the same compound, the TGI [43] was greater than 10 µM, the TGI [44] was greater than 10 µM and the TGI [45] was greater than 10 µM. The TGI [46] was greater than 10 µM, the TGI [58] was greater than 10 µM and the TGI [47] was greater than 10 µM. It also gave a TGI [49] greater than 10 µM and a TGI [50] greater than 10 µM.
For `CN1CN(c2ccccc2)C2(CCN(CCCC3(c4cccs4)OCCO3)CC2)C1=O`, the TGI [1] was greater than 100 µM, the TGI [2] was greater than 100 µM and the TGI [3] was greater than 100 µM. The TGI [4] was greater than 100 µM, the TGI [5] was greater than 100 µM and the TGI [6] was greater than 100 µM. The TGI [7] was greater than 100 µM, the TGI [8] was greater than 100 µM and the TGI [51] was greater than 100 µM. For the same compound, the TGI [9] was greater than 100 µM, the TGI [10] was greater than 100 µM and the TGI [11] was greater than 100 µM. The TGI [52] was greater than 100 µM, the TGI [12] was greater than 100 µM and the TGI [13] was greater than 100 µM. It also gave a TGI [53] greater than 100 µM, a TGI [14] greater than 100 µM and a TGI [54] greater than 100 µM. The TGI [15] was greater than 100 µM, the TGI [16] was greater than 100 µM and the TGI [17] was greater than 100 µM. It also gave a TGI [18] greater than 100 µM, a TGI [55] greater than 100 µM and a TGI [19] greater than 100 µM. The TGI [20] was greater than 100 µM, the TGI [21] was greater than 100 µM and the TGI [22] was greater than 100 µM. The TGI [23] was greater than 100 µM, the TGI [24] was greater than 100 µM and the TGI [25] was greater than 100 µM. The TGI [26] was greater than 100 µM, the TGI [56] was greater than 100 µM and the TGI [27] was greater than 100 µM. The TGI [28] was greater than 100 µM, the TGI [29] was greater than 100 µM and the TGI [30] was greater than 100 µM. The TGI [31] was greater than 100 µM, the TGI [32] was greater than 100 µM and the TGI [33] was greater than 100 µM. It also gave a TGI [34] greater than 100 µM, a TGI [35] greater than 100 µM and a TGI [36] greater than 100 µM. It also gave a TGI [57] greater than 100 µM, a TGI [37] greater than 100 µM and a TGI [38] greater than 100 µM. The TGI [39] was greater than 100 µM, the TGI [40] was greater than 100 µM and the TGI [41] was greater than 100 µM. For the same compound, the TGI [42] was greater than 100 µM, the TGI [43] was greater than 100 µM and the TGI [44] was greater than 100 µM. The TGI [45] was greater than 100 µM, the TGI [46] was greater than 100 µM and the TGI [58] was greater than 100 µM. For the same compound, the TGI [47] was greater than 100 µM, the TGI [48] was greater than 100 µM and the TGI [49] was greater than 100 µM. The TGI [50] was greater than 100 µM.
